Measured values taken from publication PMC10869804 (Scientific Reports, 2024).

Experiments:
[1] = biological target: fluorescent designed Orf63 binding peptide FAM-Ahx-…; assay: fluorescence polarisation; 10 nM fluorescent peptide with varying concentrations of Orf63 (per protomer) in PBS pH 7.4; 1:1 binding function, each peptide assumed to bind each protomer independently
[2] = biological target: 6xHis-Flag affinity tagged Orf63 from lambda bacteriophage (phage λ); assay: SEC-MALS; 2 mg/mL Orf63; 10 mM Tris-HCl, 0.15 M NaCl, pH 8.0; SEC300A column at 0.2 mL/min
15N-Orf63 dimer = assay: 15N-HSQC mixing experiment with ubiquitin fusion proteins; format: binding, lambda bacteriophage; details: 2:1 ubiquitin fusion to 15N-Orf63 dimer, 5 mM Tris-Cl pH 7.4, 50 mM NaCl
Protocol: Amino acid substitution mutants were prepared using the Q5 mutagenesis method (New England Biolabs) with oligonucleotides from IDT. […] At an A600 of 0.8, expression was induced by the addition of 1 mM isopropyl thiogalactoside (IPTG), and the culture was grown for 3 h further before harvesting. Detailed information regarding the purification of this fragment by nickel affinity and gel filtration chromatography has been published previously. For NMR spectroscopy, a uniformly ^13C, ^15N isotopically labelled protein sample was made from a 1 L culture containing M9 minimal media salts supplemented with 3 g of ^13C-glucose (Sigma-Aldrich), 1 g of ^15N ammonium chloride (Sigma-Aldrich) and 1 g of ^13C,^15N Celtone algal extract (Cambridge Isotopes). Natural abundance Orf63 proteins were prepared using a similar protocol except cultures were grown in LB media. Protein concentrations were estimated by UV absorbance at 280 nm. […]
design ubiquitin […]
control ubiquitin […]
(a) A mixing experiment was performed with 15N-Orf63 and a Ubiquitin-fusion protein with a C-terminal extension corresponding to a designed peptide, or an unrelated peptide control. The mixing ratio was 2:1 (Ubiquitin fusion […]
(b,c) 15N-HSQC spectra of 15N-Orf63
(blue) and 15N-Orf63 mixed with a Ubiquitin fusion protein. Asterisks denote peaks that were […]

Orf63 = assay: 1H,15N-HSQC comparison of Orf63-linker-peptide hybrid protein with Orf63; format: binding, lambda bacteriophage; details: 0.15 mM 15N-labeled 6xHis-Flag-Orf63-linker-peptide vs 0.15 mM 15N-labeled 6xHis-Flag-Orf63
15N-Orf63 = assay: 15N-HSQC titration / chemical shift perturbation (CSP) mapping of peptide binding; set-up: species or system lambda bacteriophage
Protocol: (a) ^1H-^15N chemical shift perturbations (CSPs) measured between ^15N-Orf63 free, and in complex with a unlabelled designed peptide. Blue shading highlights a CSP > 0.05.
A titration was performed by acquiring a series of ^15N-HSQC spectra of 0.48 mM ^15N-Orf63 (monomeric concentration) with 0.12, 0.24, 0.36, 0.48, and 0.60 mM peptide ([…]) manufactured by GenScript (Piscataway, NJ) in phosphate buffered saline pH 7.4. Assignments of peptide-bound ^15N-Orf63, particularly through two helical regions, were made by walking through HN-HN correlations in a 3D 15N-NOESY spectrum.
Most resonances during the […]
throughout the two a-helical regions, was confirmed by an HN-HN walk through a 3D 15N-NOESY spectrum. Unassigned resonances N-terminal helix a1 and C-terminal to helix a2 are likely unstructured due to the absence of i,i+3, i,i+4, and HN-HN NOEs. The residue numbering follows the PDB file 8DSB and the expressed protein with N-terminal affinity […]
(1 picture or pasted object on this page, not shown here)

[3] = test system: lysogenic or lytic developmental outcome of phage λ infection; details: period to new viral progeny, bacterial survivors, conversion to lysogens; ref [8],[11]; cited from earlier work

Molecule: 6xHis-Flag affinity tagged Orf63 from lambda bacteriophage (natural protein)
- Kd [1]: 3.1 µM
- stoichiometry N [2]: 2

Molecule: DTKELILAIARKVKEMIKNS [Ubiquitin fusion protein]
- line broadening / chemical shift changes (15N-Orf63 dimer): significant line broadening suggesting binding was occurring
- line broadening / chemical shift changes (15N-Orf63 dimer; listed as design): severely line broadened

Molecule: DTKELILAIARKVKEMIKNS [hybrid protein]
- spectrum of hybrid protein relative to Orf63 (Orf63): resembled Orf63 with additional peaks from the helical ligand along with a set of chemical shift changes

Molecule: DTKELILAIARKVKEMIKNS [synthetic peptide]
- saturation of the complex (15N-Orf63; 0.48 mM 15N-Orf63 (monomeric), 0.12-0.60 mM peptide, PBS pH 7.4, between 1:1 and 1.2:1 peptide:protomer ratio): the complex was deemed to be saturated with peptide ligand
- exchange regime of CSPs, majority of resonances (15N-Orf63; 0.48 mM 15N-Orf63 (monomeric), titrated with peptide, PBS pH 7.4): fast exchange
- exchange regime of CSPs, minority of resonances in helix α2 from S45 onwards (15N-Orf63; 0.48 mM 15N-Orf63 (monomeric), titrated with peptide, PBS pH 7.4, largest measured CSPs): slow exchange
- observed interaction surface (CSPs mapped on the structure) (15N-Orf63; 0.48 mM 15N-Orf63, PBS pH 7.4): consistent with the predicted interaction surface of the model

Molecule: MAIAHAATEYVFADFVLK [reference compound]
- line broadening / chemical shift changes (15N-Orf63 dimer): no chemical shift or line broadening changes

B1: Ea22: protein encoded between the exo and xis genes of phage λ (protein, UniProt P03756 1-182, looked up)
Protein ea22: MSEINSQALREAAEQAMHDDWGFDADLFHELVTPSIVLELLDERERNQQYIKRRDQENEDIALTVGKLRVELETAKSKLNEQREYYEGVISDGSKRIAKLESNEVREDGNQFLVVRHPGKTPVIKHCTGDLEEFLRQLIEQDPLVTIDIITHRYYGVGGQWVQDAGEYLHMMSDAGIRIKGE
- lytic/lysogenic tendency [3]: pro-lysogenic
